The values below are quoted from earlier work in patent publication US20260102408A1, “CONTRACEPTIVE COMPOSITIONS WITH REDUCED ADVERSE EFFECTS” (ESTETRA SRL, priority 2020, published 2026).

The conditions of the series: single oral dose; Blode H et al. Study 1; Caucasian; geometric mean.

For the compound `C[C@]12CCC(=O)C=C1[C@@H]1C[C@@H]1[C@H]1[C@@H]3[C@@H]4C[C@@H]4[C@@]4(CCC(=O)O4)[C@@]3(C)CC[C@@H]12` [DRSP 3 mg, drospirenone], the “AUCinf of DRSP” value was 506 ng·h/mL and the “Cmax of DRSP” value was 33.9 ng/mL.
